Holding throughout (type): in vivo
The test system of test [1] is Solanum nigrum (SOLNI). Put plainly: Post-emergence biological efficacy (percentage damage). To be noted: Solanum nigrum, 312 h, evaluated after 13 days, 100=total damage, 0=no damage; for pest or weed control at 1000 g/ha: dose 1,000 g/ha. The method in brief: (§1)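 Post-emergence glasshouse test: plants sprayed 8 days after sowing (24/16 °C day/night, 14 h light, 65% humidity) at 250 or 1000 g/ha, formulated in acetone/water 50:50 with 0.5% Tween 20. Damage scored visually 13 days after treatment on a 0–100 scale (100 = total damage).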

Test [2] relates to Echinochloa crus-galli (ECHCG). The description is as above. To be noted: Echinochloa crus-galli, 312 h, evaluated after 13 days, 100=total damage, 0=no damage; for pest or weed control at 1000 g/ha: dose 1,000 g/ha. In a few lines:
as §1

Test [3] concerns Alopecurus myosuroides (ALOMY). The description is as above. To be noted: Alopecurus myosuroides, 312 h, evaluated after 13 days, 100=total damage, 0=no damage; for pest or weed control at 1000 g/ha: dose 1,000 g/ha. The method in brief:
as §1

Test [4] relates to Setaria faberi (SETFA). Described as above. To be noted: Setaria faberi, 312 h, evaluated after 13 days, 100=total damage, 0=no damage; for pest or weed control at 1000 g/ha: dose 1,000 g/ha. In a few lines:
as §1

The subject of test [5] is Ipomea hederaceae (IPOHE). Described as above. To be noted: Ipomoea hederacea, 312 h, evaluated after 13 days, 100=total damage, 0=no damage; for pest or weed control at 1000 g/ha: dose 1,000 g/ha. In a few lines:
as §1

Test [6] has as its system Amaranthus retoflexus (AMARE). Described as above. To be noted: Amaranthus retroflexus, 312 h, evaluated after 13 days, 100=total damage, 0=no damage; for pest or weed control at 1000 g/ha: dose 1,000 g/ha. In a few lines: as §1
Test [7] has as its system Solanum nigrum (SOLNI). Put plainly: Pre-emergence biological efficacy (percentage damage). To be noted: Solanum nigrum, 312 h, evaluated after 13 days, 100=total damage, 0=no damage; for pest or weed control at 1000 g/ha: dose 1,000 g/ha. The method in brief:
(§2)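 Seeds were sown in standard soil in pots and, one day later, sprayed with test compound at 250 or 1000 g/ha in acetone/water (50:50) with 0.5% Tween 20. Plants grew in a glasshouse at 24/16 °C day/night, 14 h light, 65% humidity; damage was scored after 13 days (0 = none, 100 = total).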

Test [8] relates to Echinochloa crus-galli (ECHCG). The description is as above. To be noted: Echinochloa crus-galli, 312 h, evaluated after 13 days, 100=total damage, 0=no damage; for pest or weed control at 1000 g/ha: dose 1,000 g/ha. In a few lines:
as §2

Test [9] concerns Alopecurus myosuroides (ALOMY). The test is described as above. To be noted: Alopecurus myosuroides, 312 h, evaluated after 13 days, 100=total damage, 0=no damage; for pest or weed control at 1000 g/ha: dose 1,000 g/ha. The method in brief:
as §2

Test [10] concerns Setaria faberi (SETFA). The test is described as above. To be noted: Setaria faberi, 312 h, evaluated after 13 days, 100=total damage, 0=no damage; for pest or weed control at 1000 g/ha: dose 1,000 g/ha. In a few lines:
as §2

Test [11] relates to Ipomea hederaceae (IPOHE). The description is as above. To be noted: Ipomoea hederacea, 312 h, evaluated after 13 days, 100=total damage, 0=no damage; for pest or weed control at 1000 g/ha: dose 1,000 g/ha. The method in brief: as §2
In test [12] the test system is Amaranthus retoflexus (AMARE). The description is as above. To be noted: Amaranthus retroflexus, 312 h, evaluated after 13 days, 100=total damage, 0=no damage; for pest or weed control at 1000 g/ha: dose 1,000 g/ha. In a few lines: as §2

Broadly, the pest or weed control is how far the test organism was held down. Low values mean a weak effect, high ones a strong effect. Regarding `C=Cc1c(N)nc(-c2ccc3c(c2)OCO3)nc1C(=O)OC` [Compound 70-61, 4-Amino-5-ethenyl-6-methoxycarbonyl-2-(3,4-methylenedioxy-phenyl)-pyrimidine], the pest or weed control at 1000 g/ha in the test on Solanum nigrum (SOLNI) [1] came out at 90%; in [2], 100%; in test [3], 100%; with Setaria faberi (SETFA) [4] it was 40%; in [5], 80%; in test [6] it was 100%. Moreover, the pest or weed control at 1000 g/ha in the test with Solanum nigrum (SOLNI) [7] is 100%; in test [8], 90%; in test [9], 80%; in the test with Setaria faberi (SETFA) [10] it was 70%; in [11], 80%; in [12], 100%.

With `COC(=O)COc1nc(C2CC2)nc(N)c1C` [Compound 2-362, 4-amino-2-cyclopropyl-6-methoxycarbonylmethoxy-5-methylpyrimidine], the pest or weed control at 1000 g/ha with Solanum nigrum (SOLNI) [1] was 80%; in test [2] it was 60%; in test [3] it was 40%; in the test on Setaria faberi (SETFA) [4], 70%; in test [5] it was 80%; in test [6], 80%. The pest or weed control at 1000 g/ha is 10% in the test on Solanum nigrum (SOLNI) [7]; 10% in [8]; 40% in test [9]; 40% with Setaria faberi (SETFA) [10]; 30% in test [11]; 40% in [12].

In the case of `COC(=O)c1nc(-c2ccc(Cl)c(N(C)C)c2F)nc(N)c1C` [Compound 33-41], the pest or weed control at 1000 g/ha is 70% in the test with Solanum nigrum (SOLNI) [1]; 50% in test [2]; 30% in test [3]; 70% in the test on Setaria faberi (SETFA) [4]; 10% in [5]; 100% in test [6]. Also, the pest or weed control at 1000 g/ha in the test on Solanum nigrum (SOLNI) [7] was 30%; in [8] it was 10%; in test [9], 10%; in the test with Setaria faberi (SETFA) [10], 30%; in test [11], 0%; in [12], 20%.

Take `C=Cc1c(N)nc(-c2ccc(F)c(OC)c2)nc1C(=O)OC` [Compound 42-61, 4-Amino-5-ethenyl-2-(4-fluoro-3-methoxyphenyl)-6-methoxycarbonyl-pyrimidine]: the pest or weed control at 1000 g/ha in the test with Solanum nigrum (SOLNI) [1] was determined as 30%; in test [2] it was 30%; in [3], 30%; in the test with Setaria faberi (SETFA) [4], 40%; in test [5] it was 10%; in test [6], 100%. Further, the pest or weed control at 1000 g/ha in the test with Solanum nigrum (SOLNI) [7] was determined as 20%; in test [8], 10%; in [9], 10%; in the test with Setaria faberi (SETFA) [10], 20%; in test [11], 0%; in test [12], 60%.

In the case of `C=Cc1c(N)nc(-c2ccc(C#N)cc2)nc1C(=O)OC` [Compound 68-61, 4-Amino-2-(4-cyanophenyl)-5-ethenyl-6-methoxycarbonyl-pyrimidine], the pest or weed control at 250 g/ha in the test with Solanum nigrum (SOLNI) [1] (dose 250 g/ha) was 80%; in test [2] (dose 250 g/ha), 0%; in [3] (dose 250 g/ha), 0%; in the test with Setaria faberi (SETFA) [4] (dose 250 g/ha) it was 0%; in test [5] (dose 250 g/ha) it was 40%; in [6] (dose 250 g/ha), 30%. For the same compound, the pest or weed control at 250 g/ha turned out to be 30% in the test with Solanum nigrum (SOLNI) [7] (dose 250 g/ha); 0% in test [8] (dose 250 g/ha); 0% in test [9] (dose 250 g/ha); 0% with Setaria faberi (SETFA) [10] (dose 250 g/ha); 0% in test [11] (dose 250 g/ha); 10% in [12] (dose 250 g/ha).

As to `C=Cc1c(N)nc(-c2ccc(Cl)c(N(C)C)c2F)nc1C(=O)OCC` [Compound 33-101, 4-amino-2-(4-chloro-3-dimethylamino-2-fluorophenyl)-5-ethenyl-6-ethoxycarbonyl-pyrimidine], the pest or weed control at 1000 g/ha with Solanum nigrum (SOLNI) [1] was determined as 90%; in [2], 90%; in [3] it was 80%; with Setaria faberi (SETFA) [4], 80%; in test [5] it was 60%; in [6], 100%. In addition, the pest or weed control at 1000 g/ha in the test on Solanum nigrum (SOLNI) [7] came to 90%; in test [8] it was 90%; in test [9], 60%; in the test on Setaria faberi (SETFA) [10], 90%; in test [11] it was 30%; in test [12] it was 100%.

As to `C=Cc1c(N)nc(-c2cc(F)c(F)c(F)c2)nc1C(=O)OC` [Compound 63-61, 4-Amino-5-ethenyl-6-methoxycarbonyl-2-(3,4,5-trifluorophenyl)-pyrimidine], the pest or weed control at 1000 g/ha with Solanum nigrum (SOLNI) [1] worked out at 20%; in test [2], 0%; in test [3], 0%; in the test on Setaria faberi (SETFA) [4], 0%; in test [5] it was 20%; in test [6] it was 0%. The pest or weed control at 1000 g/ha (in the test with Solanum nigrum (SOLNI) [7]; in [8]; in test [9]; in the test on Setaria faberi (SETFA) [10]; in [11]; in test [12]) was 0% each time.

As to `C=Cc1c(N)nc(-c2ccc(Cl)c(Cl)c2)nc1C(=O)OC` [Compound 9-61, 4-Amino-2-(3,4-dichlorophenyl)-5-ethenyl-6-methoxycarbonyl-pyrimidine], the pest or weed control at 1000 g/ha came out at 90% in the test with Solanum nigrum (SOLNI) [1]; 20% in [2]; 20% in test [3]; 0% with Setaria faberi (SETFA) [4]; 70% in test [5]; 100% in [6]. Further, the pest or weed control at 1000 g/ha amounted to 70% in the test on Solanum nigrum (SOLNI) [7]; 30% in test [8]; 0% in [9]; 0% in the test with Setaria faberi (SETFA) [10]; 10% in [11]; 90% in test [12].

For `C=Cc1c(OC)nc(C2CC2)nc1C(=O)OC` [Compound 2-398, 2-Cyclopropyl-5-ethenyl-4-methoxy-6-methoxy-carbonyl-pyrimidine], the pest or weed control at 1000 g/ha with Solanum nigrum (SOLNI) [1] came out at 80%; in [2] it was 0%; in [3] it was 0%; in the test with Setaria faberi (SETFA) [4] it was 0%; in test [5], 90%; in test [6], 90%. The pest or weed control at 1000 g/ha in the test on Solanum nigrum (SOLNI) [7] stood at 90%; in test [8], 0%; in test [9], 0%; in the test with Setaria faberi (SETFA) [10] it was 0%; in test [11], 100%; in [12] it was 90%.

`C=Cc1c(N=[N+]=[N-])nc(C2CC2)nc1C(=O)OC` [Compound 2-399, 4-azido-2-cyclopropyl-5-ethenyl-6-methoxycarbonyl-pyrimidine]: the pest or weed control at 1000 g/ha was 20% in the test with Solanum nigrum (SOLNI) [1]; 0% in [2]; 0% in test [3]; 0% in the test on Setaria faberi (SETFA) [4]; 20% in test [5]; 20% in [6]. Besides, the pest or weed control at 1000 g/ha (in the test with Solanum nigrum (SOLNI) [7]; in test [8]; in test [9]; with Setaria faberi (SETFA) [10]; in test [11]; in test [12]) was 0% in each case.
